{"source": "patent US7112576B1", "about": "“Compositions and methods for cryopreservation of peripheral blood lymphocytes” (Regents of the University of Minnesota, priority 1999, dated 2006)", "origin": "cited, not measured here", "system": "patients who received cryopreserved autologous cell grafts", "settings": "attributed to the infusion of DMSO", "data": [{"smiles": "C[S+](C)[O-]", "note": "[DMSO, dimethylsulfoxide]", "values": [{"measurement": "patients exhibiting decreased heart rates", "result": 98, "unit": "%"}, {"measurement": "patients exhibiting dyspnea", "result": 83, "unit": "%"}, {"measurement": "patients exhibiting transient hypertension", "result": 96, "unit": "%"}]}]}
